Experimental findings from patent US10603298B2, “Succinate dehydrogenase inhibitors (SDHi's)” (Medical Research Council, priority 2014, dated 2020) are described below.

The test system of assay [1] is succinate accumulation in the ischaemic myocardium. Put plainly: Succinate accumulation in the ischaemic myocardium in vivo (LC-MS). The following applies: i.v. infusion in vivo, mouse; 30 min ischaemia. On the procedure: For the in vivo heart IR model an open-chest, in situ heart model was used^31,32. Male mice (8-10 weeks; Charles River Laboratories, UK) were anaesthetised with sodium pentobarbital (70 mg/kg intraperitoneally (i.p.)), intubated endotracheally and ventilated with 3 cm H2O positive-end expiratory pressure. Adequacy of anaesthesia was monitored using corneal and withdrawal reflexes. Ventilation frequency was kept at 110 breaths per minute with tidal volume between 125-150 μL. A thoracotomy was performed and the heart exposed by stripping the pericardium. A prominent branch of the left anterior descending coronary artery (LAD) was surrounded by a 7-0 Prolene suture that was then passed through a small plastic tube. Ischaemia was induced by tightening the tubing against the heart surface. To assess metabolites during IR in vivo, mice were divided into three groups: 30 min ischaemia, 30 min ischaemia plus 5 min reperfusion and 30 min sham-operation in which the suture was placed but the LAD was not occluded. At the end of each protocol tissue was removed from the at risk and peripheral areas of the heart, selected visually by comparing white versus red tissue, and snap-frozen in liquid nitrogen. Sham-operated tissue was removed from the presumed risk zone. Infarct size was assessed after 30 min of ischaemia followed by 120 min reperfusion using 2% triphenyltetrazolium chloride staining and is expressed as a percentage of the risk zone^33. […] For the LC separation, column A was Sequant Zic-Hilic (150 mm×4.6 mm, internal diameter 3.5 μm) with a guard column (20 mm×2.1 mm 3.5 μm) from HiChrom, Reading, UK. […] (150 mm×2.1 mm i.d. 3.5 μm) with guard column (20 mm×2.1 mm i.d. […]) from HiChrom, Reading, UK. […] Spectra were analysed using both targeted and untargeted approaches. For the targeted approach spectra were analysed using XCalibur Qual Browser and XCalibur Quan Browser softwares (Thermo Scientific) by referencing to an internal library of compounds. […] The arrays of spectra were then statistically analysed using the functions explore.data and univariate of the R package mum a^40.

In assay [2] the test system is adult primary rat cardiomyocytes. Nature of the assay: ROS production (DHE oxidation) in adult primary cardiomyocytes during in situ IR. The format is cell-based. Particulars: 40 min ischaemia then reoxygenation, 4 mM in ischaemic buffer. On the procedure:
FIG. 13: Tracking cardiomyocytes ROS levels in primary cardiomyocytes during in situ IR. Primary rat cardiomyocytes were subjected to 40 min ischaemia and reoxygenation with ROS levels tracked throughout the experiment by ratiometric measurement of dihydroethidium (DHE) oxidation. […] Representative traces of each condition are shown. The highlighted window indicates the period of the experiment expanded in detail in FIG. 3.a.
Male Sprague-Dawley rats (300-370 g) were terminally anaesthetised via IP injections of 200 mg/kg sodium pentobarbitone and 330 U/kg heparin. Hearts were excised and retrograde perfused on a Langendorff-perfusion system with 13 mL/min oxygenated KH buffer at 37° C. Cells were isolated by collagenase digestion using standard methods^41. […]
Cells were imaged within 36 hours of plating. […] Simulated ischaemia was achieved by replacing the buffer with a pre-gassed, hypoxic recording buffer simulating ischaemia (as above but lacking glucose and containing 10 mM sodium lactate, 14.8 mM KCl; pH 6.4) and by covering the heated stage with a transparent, gas-impermeant lid, forming a small chamber into which argon was forced to maintain hypoxia. pO2 was routinely measured as <2.0 mm Hg during simulated ischaemia. […]
ROS production was estimated by oxidation of DHE. […] All measured cell parameters were analysed with Fiji image processing software.

For the molecule `COC(=O)CC(=O)OC` [dimethyl malonate], the “succinate accumulation in the ischaemic myocardium” value in assay [1] is reported as “strikingly decreased succinate accumulation”. Moreover, the “ROS production / DHE oxidation upon reperfusion” value in assay [2] was “reduced DHE oxidation upon reperfusion”.
